Consider two molecules from patent US20040209799A1, “JAK/STAT pathway inhibitors and the uses thereof” (priority 2000, published 2004).

Assay [1] deals with BTK (Bruton's agarnrnaglobulinaemia tyrosine kinase) (Homo sapiens, UniProt Q06187). Briefly: poly (Glu, Tyr) 4:1 ELISA, BTK. It is filed as biochemical. As for the experimental part:
(§1) To further examine the inhibition characteristics of DBH (and its variants) to a variety of cellular components, a poly (Glu, Tyr) 4:1 ELISA was performed. Hymenialdisine (H), DBH (as marine sponge extracts: see Chipman and Faulkner, 1997), and three variant forms of synthetic DBH: the free base form of DBH (DBH-2FB), a trifluoroacetic acid salt form of DBH (DBH-2S), and a methanesulfonic acid salt form of DBH (DBH 1) were solubilized in DMSO, and tested for the ability to inhibit; ZAP-70 (ζ-associated polypeptide of 70 kDa) protein tyrosine kinase, BTK (Bruton's agarnrnaglobulinaemia tyrosine kinase), JAK3 (Janus kinase 3) protein tyrosine kinase, LCK (Lymphoid T-cell protein tyrosine kinase), and IGFR (Insulin-like growth factor receptor) protein tyrosine kinase.
(§2) Maxisorb microtiter plates (Nalge Nunc International, Rochester, N.Y.) were coated with 1 mg/ml Poly(Glu,Tyr) 4:1 (Sigma, St. Louis, Mo.) solubilized in phosphate buffered saline (PBS), 0.02% sodium azide. On the day of the assay, microtiter plates were washed 4× with TBS-Tween (25 mM Tris pH 8.0, 150 mM NaCl, 0.05% Tween 20) using a Skatron plate washer (Skatron Instruments, Sterling, Va.). 200 μl of sterile blocking buffer (3% BSA in PBS, 0.02% sodium azide) was added to each well, and the microtiter plates were incubated at 37° C. for 1 hour. The blocking buffer was removed, the plates washed, and various concentrations of inhibitor were added in a 20 μl volume to the wells. 60 μl of the appropriate substrate mix was then added. Substrate mixes were prepared as described in Table 2:
(§3) Following addition of the substrate mix, 20 μl of the test protein tyrosine kinase (in 1× assay buffer) was added. Kinase reactions were incubated 30 min at 37° C., followed by washes in the Skatron plate washer. 100 μl of biotinylated PT-66 anti-phosphotyrosine monoclonal antibody (Sigma, St. Louis, Mo.) (diluted 1:4000 in 0.5% BSA, sterile-filtered TBS) was added to each well, and incubated for an additional 30 minutes at 37° C. […] The samples were then read at 450 nm in a plate reader.
In general terms: In an ELISA, binding on a coated surface is turned into a signal by an enzyme label.

The target in assay [2] is T1, JAK3 (Janus kinase 3) protein tyrosine kinase (Homo sapiens, UniProt P52333).
T1 sequence (P52333 1-1124): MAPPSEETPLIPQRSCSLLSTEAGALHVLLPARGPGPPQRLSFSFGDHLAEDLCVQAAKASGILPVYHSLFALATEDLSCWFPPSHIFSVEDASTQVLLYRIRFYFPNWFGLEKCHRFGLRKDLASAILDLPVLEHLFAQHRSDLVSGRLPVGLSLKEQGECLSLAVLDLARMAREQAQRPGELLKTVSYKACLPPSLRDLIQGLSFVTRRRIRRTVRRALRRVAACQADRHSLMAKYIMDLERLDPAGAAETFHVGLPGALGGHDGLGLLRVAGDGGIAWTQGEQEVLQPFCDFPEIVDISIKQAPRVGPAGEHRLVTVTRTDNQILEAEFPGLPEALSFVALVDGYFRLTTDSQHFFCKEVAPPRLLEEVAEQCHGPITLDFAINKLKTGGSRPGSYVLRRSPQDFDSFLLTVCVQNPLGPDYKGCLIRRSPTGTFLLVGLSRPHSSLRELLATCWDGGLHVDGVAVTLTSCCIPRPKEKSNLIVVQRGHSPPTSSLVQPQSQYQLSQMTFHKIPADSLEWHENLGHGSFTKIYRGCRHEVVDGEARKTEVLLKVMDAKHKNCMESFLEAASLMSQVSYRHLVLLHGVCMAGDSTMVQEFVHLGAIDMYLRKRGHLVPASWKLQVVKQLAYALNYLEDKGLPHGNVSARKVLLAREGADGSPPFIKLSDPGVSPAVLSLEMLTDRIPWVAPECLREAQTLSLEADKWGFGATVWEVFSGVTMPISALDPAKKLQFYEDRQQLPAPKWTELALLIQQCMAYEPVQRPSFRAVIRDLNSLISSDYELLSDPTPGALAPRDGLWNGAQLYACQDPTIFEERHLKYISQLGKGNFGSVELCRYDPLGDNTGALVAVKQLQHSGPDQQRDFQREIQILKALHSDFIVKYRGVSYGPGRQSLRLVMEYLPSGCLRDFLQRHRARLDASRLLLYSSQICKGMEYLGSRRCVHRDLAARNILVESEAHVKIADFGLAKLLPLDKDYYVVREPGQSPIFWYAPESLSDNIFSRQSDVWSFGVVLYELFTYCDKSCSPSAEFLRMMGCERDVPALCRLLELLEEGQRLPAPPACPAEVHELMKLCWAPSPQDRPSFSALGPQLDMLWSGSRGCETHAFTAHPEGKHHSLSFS
Briefly: poly (Glu, Tyr) 4:1 ELISA, JAK3. In kind it is biochemical. Particulars: inhibitors solubilized in DMSO, read-out: ec-50 (effective concentration for 50% inhibition) of JAK3. On the procedure: as §1, §2, §3

Sequence of BTK (Bruton's agarnrnaglobulinaemia tyrosine kinase) (Q06187 whole entry, species assumed): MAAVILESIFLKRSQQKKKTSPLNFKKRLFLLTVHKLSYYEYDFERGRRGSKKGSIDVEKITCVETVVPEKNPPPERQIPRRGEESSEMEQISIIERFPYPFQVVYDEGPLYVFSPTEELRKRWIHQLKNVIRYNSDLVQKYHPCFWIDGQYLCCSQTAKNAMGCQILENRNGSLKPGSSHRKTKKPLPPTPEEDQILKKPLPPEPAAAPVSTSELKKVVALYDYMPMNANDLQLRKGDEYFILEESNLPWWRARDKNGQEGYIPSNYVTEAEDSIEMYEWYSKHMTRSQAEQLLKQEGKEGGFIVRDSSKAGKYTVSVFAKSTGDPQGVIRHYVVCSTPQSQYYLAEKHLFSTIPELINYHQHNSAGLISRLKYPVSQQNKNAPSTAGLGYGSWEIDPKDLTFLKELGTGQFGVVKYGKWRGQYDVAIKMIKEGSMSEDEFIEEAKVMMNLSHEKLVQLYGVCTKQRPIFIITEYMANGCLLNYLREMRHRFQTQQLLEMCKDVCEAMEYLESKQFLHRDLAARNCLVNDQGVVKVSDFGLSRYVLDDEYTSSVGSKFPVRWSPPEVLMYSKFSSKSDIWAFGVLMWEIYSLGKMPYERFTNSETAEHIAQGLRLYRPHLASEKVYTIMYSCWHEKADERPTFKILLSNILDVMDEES

`NC1=NC(=O)C(=C2CCNC(=O)c3[nH]ccc32)N1` [DBH, 4-(2-amino-4-oxo-2-imidazolin-5-ylidene)-4,5,6,7-tetrahydropyrrolo(2,3-c) azepine-8-one]: the “Inhibition of BTK” value in assay [1] (ec-50 values ranging from hundreds of micromolar to no inhibition (data not shown)) is given as “weak”. Also, the EC50 in assay [2] is 23.4 to 34.4 µM.
On to `NC1=NC(=O)C(=C2CCNC(=O)c3[nH]ccc32)N1` [DBH-2FB], for which, in assay [1] (values for the four kinases range from 1971 μM to no inhibition, read-out: α-50 value for BTK), the IC50 is no less than 1970 µM. Also, the EC50 in assay [2] worked out at 11.6 µM.
